We go through 2 compounds from patent US20240294572A1, “Antimicrobial Peptides” (priority 2021, published 2024).

For one data set, the system named is P. aeruginosa PAO1. The data set is classed as cell-based. An outline of the steps:
(§1)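 Broth microdilution per CLSI M07-A10 with minor changes: 2-fold peptide dilutions plus log-phase bacteria (OD600 ~0.5) diluted to 0.001 OD, in TSB. Incubated overnight at 37 °C; growth read at 630 nm.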

Data set [1] has as its system clinical strains of S. aureus, including USA200, USA400, Newman, and Mu50. The data set is classed as cell-based. An outline of the steps:
as §1

In the next data set the test system is S. aureus USA300. Put plainly: Bacterial membrane depolarization (DiBAC4(3)). The following applies: 3.1, 6.25, 12.5, and 25 μM; 40 minutes. The data set is classed as cell-based. Here is the method:
The experiment was conducted as described (Marks, et al. (2013) PLOS One 8:e63158). In brief, an overnight culture of S. aureus USA300 was subcultured in a fresh TSB medium and grown to the exponential phase. Cells were spun using centrifugation, washed 2× with PBS, resuspended in twice the volume of PBS containing 25 mM glucose, and incubated at 37° C. for 15 minute. For membrane depolarization measurements, 500 nM (final concentration) of the dye DiBAC4 (3) bis(1,3-dibutylbarbituric acid) trimethine oxonol (ANASPEC, CA) was added, and the reaction mixture was vortexed gently. Aliquots of 90 μL of the energized bacteria solution were loaded to the wells, and the plate was fed into a FLUOstar® Omega microplate reader. Fluorescence was read for 20 minutes at excitation and emission wavelengths of 485 and 520 nm, respectively, to get dye normalization. Then, 10 μL of the peptide solution was added and gently mixed. Fluorescence readings were recorded for 40 minutes, where Triton™ X-100 (0.1%) was used as a positive control.

For a further data set, the system named is S. aureus USA300 LAC. Put plainly: Bacterial resistance development, multiple passage experiment. The data set is classed as cell-based. The conditions noted are these: 14 passages/days at sub-MIC. Here is the method: This experiment was performed similar to the MIC determination with a few modifications as described (Mishra, et al. (2019) Proc. Natl. Acad. Sci., 116:13517-13522). In short, an exponential phase S. aureus USA300 culture (i.e., optical density at 600 nm≈0.5) was diluted and partitioned into a 96-well polystyrene microplate with ˜10^5 bacteria per well (90 μL aliquots). After treatment with 10 μL of peptide or nafcillin solutions at various concentrations, microplates were incubated at 37° C. overnight and read on a ChroMate® 4300 Microplate Reader at 630 nm (Awareness Technology, FL). Of the wells with sub-MIC levels of the peptides that retained growth, approximately half of the control wells were again reinoculated in fresh TSB with sub-MIC concertation of peptides or antibiotics to attain exponential phase for MIC determination. Up to 15 serial passages of the bacteria cultures were conducted. The increase in the fold change (MIC on given passage/MIC recorded in first day of passage) was used to determine the degree of drug resistance.

Another data set in a line: In vivo toxicity. Set-up: species or system C57BL/6 mice. As to the method: Toxicity was assessed in female C57BL/6 mice by the intraperitoneal administration of increasing doses of the antimicrobial peptide C10-KR8d (10, 20, and 40 mg/kg) and a control group without peptide treatment. The animals were then observed for 5 days (twice a day). The number of moribund/dead animals for each of the doses was noted and plotted.
Mice were caged, fed, and environmentally adapted as described (Lakshmaia, et al. (2020) Proc. Natl. Acad. Sci., 117:19446-19454). All animal manipulations were performed in a class II laminar flow biological safety cabinet.

The test system of data set [2] is S. aureus USA300 transposon mutant SAUSA300_0645 (graR). As to the kind of experiment: Antimicrobial susceptibility of transposon mutant. The data set is classed as cell-based. The following applies: mutant SAUSA300_0645 graR versus WT. As to the method:
(§2) The antimicrobial susceptibility of over 20 MRSA transposon mutants were also tested, based on a transposon library screening, in the presence of LL-37 peptides (Golla, et al. (2020) ACS Infect. Dis., 6:1866-1881). This Nebraska Transposon Mutant Library of S. aureus USA300 consists of 1920 mutants, each with one nonessential gene disabled due to a transposon insertion (Fey, et al. (2013) mBio 4:e00537-12). The correct insertion of the transposon to each Staph mutant had been verified (Golla, et al. (2020) ACS Infect. Dis., 6:1866-1881). Antimicrobial susceptibility to the new peptide C10-KR8d was evaluated in the same manner as MIC assays. Susceptible strains could be inhibited at a peptide concentration lower than the MIC against the wild strain S. aureus JE2.

The subject of data set [3] is S. aureus USA300 transposon mutant SAUSA300_0646 (graS). Put plainly: Antimicrobial susceptibility of transposon mutant. The data set is classed as cell-based. The conditions noted are these: mutant SAUSA300_0646 graS versus WT. Here is the method:
as §2

In data set [4] the test system is S. aureus USA300 transposon mutant SAUSA300_0988 (trkA). Put plainly: Antimicrobial susceptibility of transposon mutant. The data set is classed as cell-based. The conditions noted are these: mutant SAUSA300_0988 trkA versus WT. As to the method:
as §2

Data set [5] has as its system S. aureus USA300 transposon mutant SAUSA300_1037 (pheS). Put plainly: Antimicrobial susceptibility of transposon mutant. The following applies: mutant SAUSA300_1037 pheS versus WT. The data set is classed as cell-based. As to the method:
as §2

Data set [6] has as its system S. aureus USA300 transposon mutant SAUSA300_1089 (lspA). Put plainly: Antimicrobial susceptibility of transposon mutant. The data set is classed as cell-based. The conditions noted are these: mutant SAUSA300_1089 lspA versus WT. As to the method:
as §2

Data set [7] has as its system S. aureus USA300 transposon mutant SAUSA300_1255 (mprF). As to the kind of experiment: Antimicrobial susceptibility of transposon mutant. The data set is classed as cell-based. The following applies: mutant SAUSA300_1255 mprF versus WT. As to the method: as §2
The test system of data set [8] is S. aureus USA300 transposon mutant SAUSA300_1865 (vraR). As to the kind of experiment: Antimicrobial susceptibility of transposon mutant. The data set is classed as cell-based. The conditions noted are these: mutant SAUSA300_1865 vraR versus WT. As to the method: as §2

≈ marks a conversion by molar mass, not a printed value. Non-standard residues stand in square brackets, D forms with d. Residues, ends and D or L forms follow the SMILES beside them. *: point of attachment. Decanoyl = CCCCCCCCCC(=O)* Where only a bound is given, the exact number is not on record here.

For `CCCCCCCCCC(=O)N[C@@H](CCCCN)C(=O)N[C@@H](CCCNC(=N)N)C(=O)N[C@H](C(=O)N[C@@H](Cc1c[nH]c2ccccc12)C(=O)N[C@@H](CCC(N)=O)C(=O)N[C@@H](CCCNC(=N)N)C(=O)N[C@H](C(=O)N[C@@H](CCCCN)C(N)=O)[C@@H](C)CC)[C@@H](C)CC` [Peptide C10-KR8] (Decanoyl-KRIWQRIK-NH2), the “MIC (μM) PA” value against P. aeruginosa PAO1 came out at 6.2 µM (≈ 7.94 µg/mL). In addition, the “MIC against clinical strains of S. aureus” value in [1] lay in the range of 1.6 to 6.2 µM.
Usually MTD stands for the highest dose tested that stayed within the study's limit of toxicity. As to `CCCCCCCCCC(=O)N[C@H](CCCCN)C(=O)N[C@H](CCCNC(=N)N)C(=O)N[C@@H](C(=O)N[C@H](Cc1c[nH]c2ccccc12)C(=O)N[C@H](CCC(N)=O)C(=O)N[C@H](CCCNC(=N)N)C(=O)N[C@@H](C(=O)N[C@H](CCCCN)C(N)=O)[C@H](C)CC)[C@H](C)CC` [Peptide C10-KR8d] (Decanoyl-[dK][dR][dI][dW][dQ][dR][dI][dK]-NH2), the “membrane depolarization ability (order)” value in the data set on S. aureus USA300 was “Triton™ X-100>17BIPHE2>C10-KR8d>daptomycin”. Also, the “MIC increase in multiple passage experiment” value against S. aureus USA300 LAC was “no changes”. Also, in the data set “In vivo toxicity” (female, C57BL/6, mouse, in vivo, ip, C57BL/6 mice, read-out: maximal tolerated dose (MTD)), the maximum tolerated dose (MTD) at 5 days was not below 20 mg/kg. For the same compound, the survival of mice result in the data set “In vivo toxicity” (i.p. 40 mg/kg) is given as “all mice died in a day”; in the data set “In vivo toxicity” (i.p. 10 or 20 mg/kg, 5 days observation), “all mice survived”. Further, the “Susceptible?” value in data set [2], in [3], in [4], in data set [5], in data set [6] and in [7] was “Yes” throughout. The “Susceptible?” value in data set [8] was “Yes”.
